From PubChem BioAssay AID1259407 (Chemical Carcinogenesis Research Information System (CCRIS), 2018)
Calls of active or inactive are those of the source. How the calls were made is not given here.

Tested on: CCRIS mutagenicity, Ames/micronucleus/aberration tests
Experiment: CCRIS mutagenicity studies
Settings: Method: PREINCUBATION

Measured: mutagenic call

C=C(C)CC(C)(C)C
inactive: Test System: AMES SALMONELLA TYPHIMURIUM, Strain/Indicator: TA98, Metabolic Activation: NONE inactive; negative | Test System: AMES SALMONELLA TYPHIMURIUM, Strain/Indicator: TA98, Metabolic Activation: RAT, LIVER, S-9, PHENOBARBITAL AND BETA-NAPHTHOFLAVONE inactive; negative | Test System: AMES SALMONELLA TYPHIMURIUM, Strain/Indicator: TA100, Metabolic Activation: NONE inactive; negative | Test System: AMES SALMONELLA TYPHIMURIUM, Strain/Indicator: TA100, Metabolic Activation: RAT, LIVER, S-9, PHENOBARBITAL AND BETA-NAPHTHOFLAVONE inactive; negative | Test System: AMES SALMONELLA TYPHIMURIUM, Strain/Indicator: TA102, Metabolic Activation: NONE inactive; negative | Test System: AMES SALMONELLA TYPHIMURIUM, Strain/Indicator: TA102, Metabolic Activation: RAT, LIVER, S-9, PHENOBARBITAL AND BETA-NAPHTHOFLAVONE inactive; negative | Test System: AMES SALMONELLA TYPHIMURIUM, Strain/Indicator: TA104, Metabolic Activation: NONE inactive; negative | Test System: AMES SALMONELLA TYPHIMURIUM, Strain/Indicator: TA104, Metabolic Activation: RAT, LIVER, S-9, PHENOBARBITAL AND BETA-NAPHTHOFLAVONE inactive; negative | Test System: AMES SALMONELLA TYPHIMURIUM, Strain/Indicator: TA1535, Metabolic Activation: NONE inactive; negative | Test System: AMES SALMONELLA TYPHIMURIUM, Strain/Indicator: TA1535, Metabolic Activation: RAT, LIVER, S-9, PHENOBARBITAL AND BETA-NAPHTHOFLAVONE inactive; negative | Test System: AMES SALMONELLA TYPHIMURIUM, Strain/Indicator: TA1537, Metabolic Activation: NONE inactive; negative | Test System: AMES SALMONELLA TYPHIMURIUM, Strain/Indicator: TA1537, Metabolic Activation: RAT, LIVER, S-9, PHENOBARBITAL AND BETA-NAPHTHOFLAVONE inactive; negative | Test System: E. COLI, Strain/Indicator: WP2UVRA/PKM101, Metabolic Activation: NONE inactive; negative | Test System: E. COLI, Strain/Indicator: WP2UVRA/PKM101, Metabolic Activation: RAT, LIVER, S-9, PHENOBARBITAL AND BETA-NAPHTHOFLAVONE inactive; negative | Test System: E. COLI, Strain/Indicator: WP2UVRA, Metabolic Activation: NONE inactive; negative | Test System: E. COLI, Strain/Indicator: WP2UVRA, Metabolic Activation: RAT, LIVER, S-9, PHENOBARBITAL AND BETA-NAPHTHOFLAVONE inactive; negative
